In US20100068260A1, “Methods, Compositions and Device for Directed and Controlled Heating and Release of Agents” (priority 2007, published 2010):

What was measured:
[1] = UV-Vis detection of chromophore release on heating liposomes (DPPC, DSPE-PEG2000, SATA-DSPE, PDP-PE); assay type: physicochemical; conditions: negative control without hydroxylamine, heated to 90° C.; FIG. 16
Description: To deprotect the thiol group on the liposomes 100 μL of 0.5 M hydroxylamine with 25 mM EDTA pH 7.3 in PBS buffer were added to 50 μL of PBS buffer containing the liposomes. The mixture was gently mixed over an hour. The procedure for deprotection was taken from Pierce.
50 μL of liposomes formed by the second method were diluted into 650 μL of PBS. UV-Vis spectra were taken of PBS as a blank, the liposomes in PBS, and hydroxylamine solution in PBS all at room temperature.
The liposomes were heated to 40 to 90° C. at 10 degree intervals for 10 minutes each, upon cooling to room temperature UV-Vis spectra was taken; the spectra are shown in FIG. 15.
As a negative control, the same procedure was performed on the same concentration of liposomes and PBS without the hydroxylamine solution. After heating the negative control to 90° C. DTT, which serves to cleave any disulfide bonds present, was added to visualize the amount of PDP-PE that is present in the liposomes, as shown in FIG. 16.

[2] = UV-Vis analysis of disulfide bond stability to heat and hydroxylamine; assay type: physicochemical; conditions: with and without hydroxylamine solution; room temperature to 90° C., 15 minutes each; FIG. 18-19
Description: The solution was heated for 15 minutes at each temperature and allowed to cool to room temp before the spectra were taken. ˜1 mg of DTT was added to the solution to cleave the remaining disulfide bonds.

CCCCCCCCCCCCCCCC(=O)OC[C@H](COP(=O)(O)OCCNC(=O)CCSSc1ccccn1)OC(=O)CCCCCCCCCCCCCCC [PDP-PE, N-[3-(2-Pyridyldithio)propionyl]-1,2-dipalmitoyl-sn-glycero-3-phosphoethanolamine]
reduction of PDP-PE with only heat [1]: does not seem to be reduced

c1ccc(SSc2ccccn2)nc1 [2,2′ dithiodipyridine, 2,2′-dithiodipyridine]
reduction of disulfide on heating [2]: reduction is occurring
